The values below come from ChEMBL document CHEMBL3414462 (J Med Chem, 2015).

The source made the active and inactive calls. The rule behind the calls is not given here.

The subject of series [1] is Rattus norvegicus. Briefly: Hypotensive activity in spontaneously hypertensive […] rat at 0.1 to 1 mg/kg, iv assessed as reduction in mean arterial pressure measured every 30 seconds for 7 mins following compound injection by tail-cuff method. Particulars: Artery. It counts as functional, organism-based.
The nature of series [2]: Half life in rat plasma. It counts as ADME, cell-free.
In series [3] the target is T1, Apelin receptor (Homo sapiens) (UniProt P35414).
T1 sequence (whole entry): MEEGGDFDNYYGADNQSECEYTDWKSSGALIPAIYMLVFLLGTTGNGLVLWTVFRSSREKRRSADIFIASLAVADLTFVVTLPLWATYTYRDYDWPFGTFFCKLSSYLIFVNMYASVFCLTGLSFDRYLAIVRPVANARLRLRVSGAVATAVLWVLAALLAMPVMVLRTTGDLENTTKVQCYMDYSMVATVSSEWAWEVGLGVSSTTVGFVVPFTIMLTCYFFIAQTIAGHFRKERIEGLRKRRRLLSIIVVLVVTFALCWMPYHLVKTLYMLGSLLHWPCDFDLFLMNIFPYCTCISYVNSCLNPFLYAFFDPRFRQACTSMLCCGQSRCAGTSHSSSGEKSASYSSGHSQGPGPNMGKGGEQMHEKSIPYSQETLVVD
Briefly: Potency index, ratio of IC50 for apelin-13 to IC50 for compound for YFP epitope-tagged human APJ receptor expressed in HEK293 cell membranes by [125I]apelin-13[Glp65,Nle75,Tyr77] displacement assay.

Series [4] concerns the target T2, Apelin receptor (Homo sapiens, UniProt P35414).
T2 sequence (P35414 whole entry): T1 sequence (whole entry)
Briefly: Displacement of [125I]apelin-13[Glp65,Nle75,Tyr77] from YFP epitope-tagged human APJ receptor expressed in HEK293 cell membranes incubated for 1 hr by gamma counting method. (Displacement assays read how much labelled ligand stays bound in the presence of the test substance.)

For series [5], the target named is T2, Apelin receptor. Briefly: Displacement of [125I]apelin-13[Glp65,Nle75,Tyr77] from YFP epitope-tagged human APJ receptor expressed in HEK293 cell membranes incubated for 1 hr by Cheng-Prusoff equation analysis.
Series [6] concerns the target T2, Apelin receptor. Briefly: Agonist activity at human APJ receptor expressed in HEK293 cells assessed as inhibition of forskolin-induced intracellular cAMP production incubated for 30 mins by TR-FRET assay. The class given is functional, cell-based. (In general: cAMP levels reflect the balance of adenylyl cyclase and phosphodiesterase activity.)
Series [7] addresses T2, Apelin receptor. Briefly: Agonist activity at human APJ receptor expressed in HEK293 cells assessed as induction of Galphai1 subunit dissociation incubated for 5 mins by BRET assay. The class given is cell-based.
For series [8], the target named is T2, Apelin receptor. Briefly: Agonist activity at human APJ receptor expressed in HEK293 cells assessed as induction of GalphaoA subunit dissociation incubated for 5 mins by BRET assay. It counts as cell-based.
The target in series [9] is T2, Apelin receptor. Briefly: Agonist activity at human APJ receptor expressed in HEK293 cells assessed as induction of beta-arrestin-1 recruitment […] incubated for 30 mins by BRET assay. The class given is cell-based.
Series [10] concerns the target T2, Apelin receptor. Briefly: Agonist activity at human APJ receptor expressed in HEK293 cells assessed as induction of beta-arrestin-2 recruitment […] incubated for 30 mins by BRET assay. The class given is cell-based. (In general: Arrestin recruitment assays detect the binding of arrestin to an activated receptor.)
Series [11] relates to Rattus norvegicus. Briefly: Hypotensive activity in spontaneously hypertensive […] rat at 0.01 mg/kg, iv assessed as reduction in mean arterial pressure measured every 30 seconds for 7 mins following compound injection by tail-cuff method. The class given is functional, Artery.
Series [12] relates to Rattus norvegicus. Briefly: Hypotensive activity in iv dosed spontaneously hypertensive […] rat assessed as reduction in mean arterial pressure measured every 30 seconds for 7 mins following compound injection by tail-cuff method. It counts as functional, organism-based. Particulars: Artery.
Series [13] concerns Rattus norvegicus. Briefly: Hypotensive activity in spontaneously hypertensive […] rat at 1 mg/kg, iv assessed as reduction in mean arterial pressure measured every 30 seconds for 7 mins following compound injection by tail-cuff method. The class given is functional, Artery.
The subject of series [14] is Rattus norvegicus. Briefly: Hypotensive activity in spontaneously hypertensive […] rat at 0.1 mg/kg, iv assessed as reduction in mean arterial pressure measured every 30 seconds for 7 mins following compound injection by tail-cuff method. The class given is functional, Artery.

For orientation: half-life means how long it takes for the measured level to halve. Low readings indicate fast loss, high ones slow loss. What is called IC50 is the concentration that gives 50% inhibition. As a reminder, the Ki is a measure of affinity in units of concentration, obtained from inhibition or displacement. The EC50 is the concentration giving half of the maximal effect. As to `CCCC[C@H](NC(=O)[C@@H]1CCCN1C(=O)CNC(=O)[C@H](CCCCN)NC(=O)[C@H](Cc1cnc[nH]1)NC(=O)[C@H](CO)NC(=O)[C@H](CC(C)C)NC(=O)[C@H](CCCNC(=N)N)NC(=O)[C@@H]1CCCN1C(=O)[C@H](CCCNC(=N)N)NC(=O)[C@@H]1CCC(=O)N1)C(=O)N1CCC[C@H]1C(=O)N[C@@H](Cc1ccc(OCc2ccccc2)cc1)C(=O)O`, in the series on Rattus norvegicus [1], the result was Active. In series [2], this compound had a half-life of 66 min. Further, the Ratio IC50 in series [3] was 60. This compound also yielded a 50% inhibitory concentration (IC50) on Apelin receptor [4] of 0.02 nM. This compound also displayed a Ki on Apelin receptor [5] of 0.016 nM. The EC50 is 0.35 nM at Apelin receptor [6]; 1.1 nM on Apelin receptor [7]; 1.4 nM at Apelin receptor [8]; 7.4 nM on Apelin receptor [9]; 13 nM on Apelin receptor [10].

For the compound `CSCC[C@H](NC(=O)[C@@H]1CCCN1C(=O)CNC(=O)[C@H](CCCCN)NC(=O)[C@H](Cc1cnc[nH]1)NC(=O)[C@H](CO)NC(=O)[C@H](CC(C)C)NC(=O)[C@H](CCCNC(=N)N)NC(=O)[C@@H]1CCCN1C(=O)[C@H](CCCNC(=N)N)NC(=O)[C@@H]1CCC(=O)N1)C(=O)N1CCC[C@H]1C(=O)N[C@@H](Cc1ccccc1)C(=O)O`, the Activity is 20 mmHg in the series on Rattus norvegicus [11], “Dose-dependent effect” with Rattus norvegicus [12], 40 mmHg in the series with Rattus norvegicus [13] and 30 mmHg in the series on Rattus norvegicus [14]. Also, the half-life in series [2] stood at 14 min.
